# Molecular target: T1, human TGR5 (Homo sapiens, UniProt Q8TDU6)
# T1 construct: expressed in transfected cells; host or cells: HEK293
# T1 sequence (Q8TDU6 1-330): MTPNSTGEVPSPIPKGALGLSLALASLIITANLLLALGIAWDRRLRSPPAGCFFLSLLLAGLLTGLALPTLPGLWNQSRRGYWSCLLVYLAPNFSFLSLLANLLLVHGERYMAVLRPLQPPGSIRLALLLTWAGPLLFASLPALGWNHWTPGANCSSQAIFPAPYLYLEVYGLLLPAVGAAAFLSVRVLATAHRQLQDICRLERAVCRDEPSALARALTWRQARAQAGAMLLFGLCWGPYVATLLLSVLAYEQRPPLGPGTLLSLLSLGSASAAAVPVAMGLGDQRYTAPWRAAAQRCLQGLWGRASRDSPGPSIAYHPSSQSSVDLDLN
# Experiment: Cell-based TGR5 assay (cAMP generation, HTRF)
# Settings: HEK293 cells stably transfected with human TGR5; cAMP by HTRF; 30 minutes at 37° C.; read-out: pEC50 Human TGR5 (converted)
# In short: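 First, compounds in 3-fold serial dilution were placed in HBSS with 10 mM HEPES pH 7.4 and 0.5 mM IBMX. Next, human TGR5-expressing HEK293 cells were added and incubated 30 min at 37° C. Finally, cAMP was detected by HTRF and pEC50 derived by logistic fitting.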
row,EC50,Compound
1,< 0.1 µM,"Cc1ccc(SCCCCN(CCOCCO)C(=O)[C@@H](O)[C@@H](O)[C@H](O)[C@@H](O)CO)cc1CNC1(c2cnccc2-c2ccccc2OC2CC2)CC1 [Compound I-549, (2S,3S,4R,5S)-N-[4-({3-[({1-[4-(2-cyclopropoxyphenyl)pyridin-3-yl]cyclopropyl}amino)methyl]-4-methylphenyl}sulfanyl)butyl]-2,3,4,5,6-pentahydroxy-N-[2-(2-hydroxyethoxy)ethyl]hexanamide]"
2,< 0.1 µM,"O=C(CCC1CCN(S(=O)(=O)c2ccc(Cl)c(COC3(c4cnccc4-c4ccccc4OC4CC4)CC3)c2)CC1)NC[C@H](O)[C@@H](O)[C@H](O)[C@H](O)CO [Compound I-449, 3-{1-[4-chloro-3-({1-[4-(2-cyclopropoxyphenyl)pyridin-3-yl]cyclopropoxy}methyl)benzenesulfonyl]piperidin-4-yl}-N-[(2S,3R,4R,5R)-2,3,4,5,6-pentahydroxyhexyl]propanamide]"
3,< 0.1 µM,"CC(CCCNC(=O)NC[C@H](O)[C@@H](O)[C@H](O)[C@H](O)CO)c1ccc(Cl)c(CNC2(c3cnccc3-c3ccccc3OC3CC3)CC2)c1 (stereo partly drawn) [Compound I-265, 1-(4-{4-chloro-3-[({1-[4-(2-cyclopropoxyphenyl)pyridin-3-yl]cyclopropyl}amino)methyl]phenyl}pentyl)-3-[(2S,3R,4R,5R)-2,3,4,5,6-pentahydroxyhexyl]urea]"
4,0.126 to 1 µM,"CCNC(=O)CCN(C[C@H](O)[C@@H](O)[C@H](O)[C@H](O)CO)C(=O)CCCSc1ccc(Cl)c(COC2(c3cnccc3-c3ccccc3OC3CC3)CC2)c1 [Compound I-672, 4-{[4-chloro-3-({1-[4-(2-cyclopropoxyphenyl)pyridin-3-yl]cyclopropoxy}methyl)phenyl]sulfanyl}-N-[2-(ethylcarbamoyl)ethyl]-N-[(2S,3R,4R,5R)-2,3,4,5,6-pentahydroxyhexyl]butanamide]"
5,< 0.1 µM,"Clc1ccc(Cl)c(COC2(c3cnccc3-c3ccccc3OC3CC3)CC2)c1 [Compound I-46, 4-(2-cyclopropoxyphenyl)-3-{1-[(2,5-dichlorophenyl)methoxy]cyclopropyl}pyridine]"
6,0.126 to 1 µM,"O=C(NCCCCNC(=O)NCCOCCSc1ccc(Cl)c(COC2(c3cnccc3-c3ccccc3OC3CC3)CC2)c1)NCCOCCSc1ccc(Cl)c(COC2(c3cnccc3-c3ccccc3OC3CC3)CC2)c1 [Compound I-638, 3-[2-(2-{[4-chloro-3-({1-[4-(2-cyclopropoxyphenyl)pyridin-3-yl]cyclopropoxy}methyl)phenyl]sulfanyl}ethoxy)ethyl]-1-[4-({[2-(2-{[4-chloro-3-({1-[4-(2-cyclopropoxyphenyl)pyridin-3-yl]cyclopropoxy}methyl)phenyl]sulfanyl}ethoxy)ethyl]carbamoyl}amino)butyl]urea]"
7,0.126 to 1 µM,"CC(CCCCN)c1ccc(Cl)c(CNC2(c3cnccc3-c3ccccc3OC3CC3)CC2)c1 (single isomer, unassigned) [Compound I-244]"
8,< 0.1 µM,"CC(C)N(CCCCNC(=O)NC[C@H](O)[C@@H](O)[C@H](O)[C@H](O)CO)S(=O)(=O)c1ccc(Cl)c(COC2(c3cnccc3-c3ccccc3OC3CC3)CCOC2)c1 (stereo partly drawn) [Compound I-750, 4-chloro-3-(((3-(4-(2-cyclopropoxyphenyl)pyridin-3-yl)tetrahydrofuran-3-yl)oxy)methyl)-N-isopropyl-N-(4-(3-((2S,3R,4R,5R)-2,3,4,5,6-pentahydroxyhexyl)ureido)butyl) benzenesulfonamide]"
9,0.126 to 1 µM,"Cc1ccc(SCCCCN(CCCCO)C(=O)[C@@H](O)[C@@H](O)[C@H](O)[C@@H](O)CO)cc1CNC1(c2cnccc2-c2ccccc2OC2CC2)CC1 [Compound I-550, (2S,3S,4R,5S)-N-[4-({3-[({1-[4-(2-cyclopropoxyphenyl)pyridin-3-yl]cyclopropyl}amino)methyl]-4-methylphenyl}sulfanyl)butyl]-2,3,4,5,6-pentahydroxy-N-(4-hydroxybutyl)hexanamide]"
10,< 0.1 µM,"CN(CCCCNC(=O)NC[C@H](O)[C@@H](O)[C@H](O)[C@H](O)CO)S(=O)(=O)c1cc(CNC2(c3cnccc3-c3ccccc3OC3CC3)CC2)c(Cl)cc1F [Compound I-474, 1-(4-{N-methyl4-chloro-5-[({1-[4-(2-cyclopropoxyphenyl)pyridin-3-yl]cyclopropyl}amino)methyl]-2-fluorobenzenesulfonamido}butyl)-3-[(2S,3R,4R,5R)-2,3,4,5,6-pentahydroxyhexyl]urea]"
11,< 0.1 µM,"O=C(O)CCCC(=O)N(CCCCc1cc(Cl)c(COC2(c3cnccc3-c3ccccc3OC3CC3)CC2)cc1Cl)C[C@H](O)[C@@H](O)[C@H](O)[C@H](O)CO [Compound I-182, 4-({4-[2,5-dichloro-4-({1-[4-(2-cyclopropoxyphenyl)pyridin-3-yl]cyclopropoxy}methyl)phenyl]butyl}[(2S,3R,4R,5R)-2,3,4,5,6-pentahydroxyhexyl]carbamoyl)butanoic acid]"
12,< 0.1 µM,"CC(CCCCCNC(=O)NC[C@H](O)[C@@H](O)[C@H](O)[C@H](O)CO)c1ccc(Cl)c(CNC2(c3cnccc3-c3ccccc3OC3CC3)CC2)c1 (stereo partly drawn) [Compound I-268, 1-(6-{4-chloro-3-[({1-[4-(2-cyclopropoxyphenyl)pyridin-3-yl]cyclopropyl}amino)methyl]phenyl}heptyl)-3-[(2S,3R,4R,5R)-2,3,4,5,6-pentahydroxyhexyl]urea]"
13,< 0.1 µM,"O=C(NCCOCCSc1ccc(Cl)c(CNC2(c3cnccc3-c3ccccc3OC3CC3)CC2)c1)NC[C@H](O)[C@@H](O)[C@H](O)[C@H](O)CO [Compound I-626, 1-{2-[2-({4-chloro-3-[({1-[4-(2-cyclopropoxyphenyl)pyridin-3-yl]cyclopropyl}amino)methyl]phenyl}sulfanyl)ethoxy]ethyl}-3-[(2S,3R,4R,5R)-2,3,4,5,6-pentahydroxyhexyl]urea]"
14,< 0.1 µM,"Cc1ccc([C@H](C)CCCC(=O)N(C)C[C@H](O)[C@@H](O)[C@H](O)[C@H](O)CO)cc1CNC1(c2cnccc2-c2ccccc2OC2CC2)CC1 (single isomer, unassigned) [Compound I-351]"
15,< 0.1 µM,"CCCN(CCCCc1cc(Cl)c(COC2(c3cnccc3-c3ccccc3OC3CC3)CC2)cc1Cl)C(=O)[C@@H](O)[C@@H](O)[C@H](O)[C@@H](O)CO [Compound I-205, (2S,3S,4R,5S)-N-{4-[2,5-dichloro-4-({1-[4-(2-cyclopropoxyphenyl)pyridin-3-yl]cyclopropoxy}methyl)phenyl]butyl}-2,3,4,5,6-pentahydroxy-N-propylhexanamide]"
16,0.126 to 1 µM,"CCOc1cc(F)c(F)cc1-c1ccncc1C1(NCc2cc(Cl)ccc2Cl)CC1 [Compound I-15, N-[(2,5-dichlorophenyl)methyl]-1-[4-(2-ethoxy-4,5-difluorophenyl)pyridin-3-yl]cyclopropan-1-amine]"
17,< 0.1 µM,"O=C(COCC1CN(S(=O)(=O)c2ccc(Cl)c(COC3(c4cnccc4-c4ccccc4OC4CC4)CC3)c2)C1)NC[C@H](O)[C@@H](O)[C@H](O)[C@H](O)CO [Compound I-456, 2-({1-[4-chloro-3-({1-[4-(2-cyclopropoxyphenyl)pyridin-3-yl]cyclopropoxy}methyl)benzenesulfonyl]azetidin-3-yl}methoxy)-N-[(2S,3R,4R,5R)-2,3,4,5,6-pentahydroxyhexyl]acetamide]"
18,< 0.1 µM,"COCCN(CCCCc1cc(Cl)c(COC2(c3cnccc3-c3ccccc3OC3CC3)CC2)cc1Cl)C(=O)[C@@H](O)[C@@H](O)[C@H](O)[C@@H](O)CO [Compound I-206, (2S,3S,4R,5S)-N-{4-[2,5-dichloro-4-({1-[4-(2-cyclopropoxyphenyl)pyridin-3-yl]cyclopropoxy}methyl)phenyl]butyl}-2,3,4,5,6-pentahydroxy-N-(2-methoxyethyl)hexanamide]"
19,< 0.1 µM,"O=C([C@@H](O)[C@@H](O)[C@H](O)[C@@H](O)CO)N(CCCCSc1ccc(Cl)c(COC2(c3cnccc3-c3ccccc3OC3CC3)CC2)c1)CCOCCO [Compound I-512, (2S,3S,4R,5S)-N-(4-{[4-chloro-3-({1-[4-(2-cyclopropoxyphenyl)pyridin-3-yl]cyclopropoxy}methyl)phenyl]sulfanyl}butyl)-2,3,4,5,6-pentahydroxy-N-[2-(2-hydroxyethoxy)ethyl]hexanamide]"
20,< 0.1 µM,"O=C(NCCCCc1cc(Cl)c(COC2(c3cnccc3-c3ccccc3OC3CC3)CC2)cc1Cl)NC[C@H](O)[C@@H](O)[C@H](O)[C@H](O)CO [Compound I-141, 1-{4-[2,5-dichloro-4-({1-[4-(2-cyclopropoxyphenyl)pyridin-3-yl]cyclopropoxy}methyl)phenyl]butyl}-3-[(2S,3R,4R,5R)-2,3,4,5,6-pentahydroxyhexyl]urea]"
21,< 0.1 µM,"O=C(CCCSc1ccc(Cl)c(COC2(c3cnccc3-c3ccccc3OC3CC3)CC2)c1)NC[C@H](O)[C@@H](O)[C@H](O)[C@H](O)CO [Compound I-498, 4-[[4-Chloro-3-([1-[4-(2-cyclopropoxyphenyl)pyridin-3-yl]cyclopropoxy]methyl)phenyl]sulfanyl]-N-[(2S,3R,4R,5R)-2,3,4,5,6-pentahydroxyhexyl]butanamide]"
22,< 0.1 µM,"CC(=O)N(CCCCSc1ccc(Cl)c(CNC2(c3cnccc3-c3ccccc3OC3CC3)CC2)c1)C[C@H](O)[C@@H](O)[C@H](O)[C@H](O)CO [Compound I-503, N-[4-({4-chloro-3-[({1-[4-(2-cyclopropoxyphenyl)pyridin-3-yl]cyclopropyl}amino)methyl]phenyl}sulfanyl)butyl]-N-[(2S,3R,4R,5R)-2,3,4,5,6-pentahydroxyhexyl]acetamide]"
